Assay results taken from patent US20170354152A1, “PESTICIDAL COMPOSITION AND METHOD FOR CONTROLLING PESTS” (priority 2015, published 2017).

Assays:
Format in all cases: in vivo
[1] = system: southern root-knot nematode (Meloidogyne incognita); assay: Test Example 1: immersion of second stage juveniles in chemical solution, mobility inhibition; settings: compound alone, 24 hours, 25° C.
Experimental: About 50 larvae at second stage juveniles of southern root-knot nematode (Meloidogyne incognita) were immersed in a chemical solution diluted to a predetermined concentration with distilled water and kept for 24 hours in a constant temperature room at 25° C. […] From these values, the mobility inhibition rate was determined by the following formula.
Mobility inhibition rate (%)=[1-{(1-B/A)/(1-B′/A′)}]×100
Further, a theoretical value (%) of the mobility inhibition rate was calculated by the Colby's formula and is also shown in brackets ( ) in Table 1. The measured value (%) of the mobility inhibition rate is higher than the theoretical value (%), and thus, the composition of the present invention has a synergistic effect for controlling nematode.

[2] = system: southern root-knot nematode (Meloidogyne incognita); assay: Example 2: pot test, contaminated soil mixed with test agents, tomato seedlings, root knot index; settings: compound alone, 35th day after transplantation, non-treated area being 100
Experimental: 1 Liter of sand soil obtained by mixing paddy steam sterilization soil, sand soil and soil contaminated with southern root-knot nematode (Meloidogyne incognita) in a volume ratio of 2:2:1, was put into a 1/1,000,000 ha pot, and predetermined amounts of test agents were added and mixed, Immediately after addition of the test agents, the mixture was sufficiently mixed, and then, seedlings of tomato (cultivar: kyoryoku bei ju) were transplanted. On the 35th day after transplantation, the root knot index (0 to 100%) formed by nematode was visually determined. The test was carried out by two replications.
Further, a theoretical value determined by the Colby's formula is shown in brackets ( ) in Table 2.

[3] = system: southern root-knot nematode (Meloidogyne incognita); assay: Example 3: cup test, contaminated soil mixed with test agents, cucumber seeds, control value from root knot index; settings: compound alone, 26th day after seeding, =100−the root knot index
Experimental: Soil contaminated with southern root-knot nematode (Meloidogyne incognita) was put in a 200 ml polypropylene cup, and predetermined amounts of test agents were added and mixed. Immediately after the addition of the test agents, the mixture was thoroughly mixed and then seeded with three seeds of cucumber. On the 26th day after seeding, the root knot index (0 to 100%) formed by nematode was visually determined.
As the test results, from the root knot index based on the root knot index in the non-treated area being 100, the control value (=100−the root knot index) was calculated, and the results are shown in Tables 3 and 4. Further, a theoretical value obtained by the Colby's formula (=Control value of compound A+Control value of compound B−((Control value of compound A×Control value of compound B)/100)) is also shown in brackets ( ) in Tables 3 and 4.

SMILES | inhibition at 0.31 ppm ([1]; Meloidogyne incognita, 0.31 ppm, read-out: Mobility inhibition rate (%)) [%] | inhibition at 0.63 ppm ([1]; Meloidogyne incognita, 0.63 ppm, read-out: Mobility inhibition rate (%)) [%] | inhibition at 1.25 ppm ([1]; Meloidogyne incognita, 1.25 ppm, read-out: Mobility inhibition rate (%)) [%] | inhibition at 2.5 ppm ([1]; Meloidogyne incognita, 2.5 ppm, read-out: Mobility inhibition rate (%)) [%] | inhibition at 5 ppm ([1]; Meloidogyne incognita, 5 ppm, read-out: Mobility inhibition rate (%)) [%] | Average root knot index ([2]; 3000 g/ha) | Control value ([3]; 125 g/ha) | Control value ([3]; 188 g/ha) | Control value ([3]; 250 g/ha) | Control value ([3]; 375 g/ha) | Control value ([3]; 500 g/ha) | Mobility inhibition rate (%) ([1]; 0.31 ppm) | Mobility inhibition rate (%) ([1]; 0.63 ppm) | Mobility inhibition rate (%) ([1]; 1.25 ppm) | Mobility inhibition rate (%) ([1]; 2.5 ppm) | Mobility inhibition rate (%) ([1]; 5 ppm) | Average root knot index ([2]; 2500 g/ha) | Control value ([3]; 200 g/ha)
CCOP(=O)(SC(C)CC)N1CCSC1=O (stereo not drawn) [Fosthiazate, fosthiazate] | 0.2 | 15 | 22.7 | 55.7 | 96.2 | 11.4 | 70.0 | 73.3 | 83.3 | 90.0 | 90.0 |  |  |  |  |  |  | 
O=S(=O)(CCC(F)=C(F)F)c1ncc(Cl)s1 [Fluensulfone, fluensulfone] |  |  |  |  |  |  |  |  |  |  |  | 36.4 | 41.7 | 48.1 | 54.7 | 69.1 | 25.7 | 73.3
